Values of other authors, collected in patent US20140079639A1, “METHODS AND COMPOSITIONS FOR IDENTIFYING, PRODUCING AND USING PLANT-DERIVED PRODUCTS FOR MODULATING CELL FUNCTION AND AGING” (LIFESPAN EXTENSION, LLC, priority 2009, published 2014).
Each block holds one compound with its values, some of them ahead of it.

What was measured:
fibroblast cells = conditions: cells treated in culture
[1] = oxidation of lipids due to e.g. UV radiation or free radical damage
[2] = when absorbed into the body

solubility: soluble in water and alcohol
Structure (SMILES): O=C(O)/C=C/c1ccc(O)c(O)c1 [Caffeic Acid, (E)-3-(3,4-dihydroxyphenyl)-2-propenoic acid]

Structure (SMILES): NCCC(=O)N[C@@H](Cc1cnc[nH]1)C(=O)O [Carnosine]
extension of lifespan of fibroblast cells past the Hayflick limit of non-treated cells (fibroblast cells): up to 10 divisions

Structure (SMILES): COC1=C(OC)C(=O)C(CCCCCCCCCCO)=C(C)C1=O [idebenone, 6-(10-hydroxydecyl)-2,3-dimethoxy-5-methyl-1,4-benzoquin-one]
reduction of lipid hydroperoxides among the tested antioxidants [1]: highest reduction

Structure (SMILES): COC1=C(OC)C(=O)C(C/C=C(\C)CC/C=C(\C)CC/C=C(\C)CC/C=C(\C)CC/C=C(\C)CC/C=C(\C)CC/C=C(\C)CC/C=C(\C)CC/C=C(\C)CCC=C(C)C)=C(C)C1=O [ubiquinone, Ubiquinone]
conversion to the active antioxidant form ubiquinol [2]: 90%
